According to US9241928B2, “Antimicrobial compounds” (The General Hospital Corporation, priority 2009, dated 2016):
≈ marks a conversion by molar mass, not a printed value.

Columns and labels:
[1] = test system: C. elegans infected with E. faecalis; assay: Dose response time courses in the C. elegans-E. faecalis infection assay; type: in vivo, Caenorhabditis elegans; details: Effective Concentration: survival significantly different from mock-treated, p-value <0.05, logrank; read-out: EC
Description: glp-4(bn2); sek-1 (km4) mutant worms were grown to gravid adult stage. 1,000 worms at the L1 stage were grown for 5.2 days at 15° C. on 9-cm plates of SK agar media spread with a lawn of E. coli strain HB101. Embryos from the gravid adults were isolated by a previously described hypochlorite method (see Tan et al., (1999) Proc. Natl. Acad. Sci. USA 96, 715-720) and hatched at 15° C. for 2 days. Approximately 4,500 of the Ll hatchlings were grown on each 9-cm plate of SK-NS agar (SK media with 62.5 U/ml nystatin and 100 μg/ml streptomycin) and with lawns of E. coli HB101. These worms were grown at 25° C. for 52 hours to generate sterile, young adults.
A culture of E. faecalis MMH594 was grown in BHI broth (BD Difco) with 80 μg/ml kanamycin at 37° C. for 6 hours and 100 μl of the culture were spread onto each 9-cm plate of BHI agar containing 80 μg/mlkanamycin. Lawns of E. faecalis were grown at 25° C. for 16 hours and transferred to 15° C. for 8 hours.
Sterile adult worms were resuspended in M9 buffer and washed twice with M9 in a 1:10 ratio to remove E. coli. 8,000 worms were pipetted onto each lawn of E. faecalis and incubated 15 hours at 15° C. After infection, the worms were resuspended in M9 and used as described below. 384-well plates (Corning #3712) were filled with 55 μl media (see below) using a Thermo Scientific MULTIDROP Combi reagent dispenser. 0.3 μl of a candidate compound in DSMO were pin transferred into each well using a CyBio CYBI-Well vario transfer system. The plates were agitated using an Eppendorf MIXMATE at 1,800 rpm for 15 seconds. Using the Union Biometrica Complex Object Parametric Analyzer and Sorter (COPAS) BIOSORT worm sorter according to manufacturer's protocols, 15 of the infected worms were transferred to each well in a total volume of approximately 15 μl. Total volume per well is 70 μl/well with a final composition of the media being 20% BHI, […], 80 μg/ml kanamycin, 62.5 U/ml nystatin, 1% DMSO, and 19% sheath solution (Union Biometrica Part #300-5101-000). Plates were vortexed for 5 seconds, centrifuged at 1000×g for 10 seconds, and sealed with gas permeable membranes (BREATHEASY Diversified). Plates were placed in a single layer on the top shelves in a 26.3° C. incubator at 85% relative humidity (RH) and incubated without agitation for 5 days.
The dose dependence of certain antimicrobial compounds identified by the assay above were studied. These compounds were purchased in a larger amount from commercial sources. For each of these compounds, an infection assay was performed essentially as described above at different concentrations except that SYTOX staining was not used. Instead, bright-field images of the wells were acquired at daily time points and scored manually for worm survival by analyzing worm body positioning. […] All compounds used in this assays were confirmed for their identity and purity by liquid chromatography/mass spectrometry.

[2] = test system: a Staphylococcus aureus strain; assay: Bacterial killing, Staphylococcus aureus strain (data not shown); type: cell-based
[3] = test system: E. faecalis strain MMH594; assay: Antimicrobial (bacterial killing) assay; type: cell-based, Enterococcus faecalis; details: mM concentrations, 1 to 30 minutes, room temperature
Description: Compounds 6, 7, 15 were purchased from TimTec and ChemDiv, dissolved in DMSO at a concentration of 5 or 10 mg/ml, and further diluted in DMSO as indicated. E. faecalis strain MMH594 was grown overnight with aeration at 37° C. in Bacto brain heart infusion (BHI) broth (Becton Dickinson), transferred to ice, and washed in phosphate-buffered saline (PBS; pH 7.2). Equal volumes of a dissolved compound and bacteria were mixed, incubated at room temperature for 1 to 30 minutes, ten-fold serially diluted in PBS, and plated in […] droplets on BHI agar plates. Plates were incubated at room temperature until colonies were visible.

E. faecalis strain V583 [4] = assay: Biofilm maintenance assay (crystal violet); type: cell-based, Enterococcus faecalis; details: 10 μg/ml added to biofilm established for 24 hours
Description: To test for the efficacy of candidate compounds on biofilm maintenance, a bacterial culture of OD600=0.025 was grown in 96-well polystyrene plates for 24 hours as described above to establish biofilm mass prior to the addition of candidate compounds dissolved in DMSO at a final concentration of 10 μg/ml. The plates were then processed as described above.

[5] = test system: a different Enterococcus faecalis strain; assay: Bacterial killing, different Enterococcus faecalis strain (data not shown); type: cell-based
E. faecalis strain V583 [6] = assay: Biofilm formation assay (crystal violet); type: cell-based, Enterococcus faecalis; details: 10 μg/ml, 24 hours
Description: To test the efficacy of candidate compounds on biofilm formation, a dilute bacterial culture of Enterococcus faecalis was incubated with candidate compounds in polystyrene plates and the level of biofilm formation was quantified by measuring the amount of crystal violet absorbed by the biofilm mass attached to plastic. First, E. faecalis strain V583 was grown at 37° C. for 16 hours in Tryptic Soy Broth (TSB) with 1% glucose. The bacterial culture was diluted to OD600=0.025 in fresh medium and was dispensed into 96-well polystyrene plates. Candidate compounds dissolved in dimethylsulfoxide (DMSO) were added to the wells to provide a final concentration of 10 μg/ml and the plates were incubated statically at 37° C. for 24 hours. After incubation, the medium was aspirated, the planktonic cells were removed by washing with phosphate buffered saline (PBS), and the plates were inverted and dried for 1 hour at room temperature. The biofilm mass was stained with 0.2% crystal violet for 15 minutes and extraneous crystal violet was washed away with PBS. The crystal violet absorbed by the biofilm was extracted with an 80% ethanol, 20% acetone mixture and the absorbance at 595 nm (OD595) was read with a spectrophotometer.

E. faecalis MMH594 = assay: MIC assay, E. faecalis in vitro; type: cell-based; details: Enterococcus faecalis; E. faecalis MMH594 in 20% BHI, 80% M9, 37° C., 15 hours, scored by eye
Description: A culture of E. faecalis MMH594 was grown overnight in BHI broth to stationary phase at 37° C. with aeration. The culture was diluted to an approximate density of […] in worm infection media (20% BHI, 80% M9 buffer). 12.5 μl of the bacterial culture dilution was inoculated into 384-well plates containing 12.5 μl of 2-fold serial dilutions of a test compound. […] Plates were incubated at 37° C. for 15 hours and scored by eye for bacterial growth.

Drosophila infection = assay: Drosophila infection-survival bioassay (data not shown); type: in vivo
immune response genes = assay: qRT-PCR of immune response genes, PMK-1 dependence (overall); type: in vivo, Caenorhabditis elegans; details: 20 μg/mL, N2 or pmk-1 mutant animals
Source text: (§1) Caenorhabditis elegans strains were maintained on Escherichia coli OP50 as described in Brenner, Genetics, 1974, 77:71-94. Wildtype N2 nematodes carrying integrated transgenes acIs219 (AU78), acIs101(AY101), agIs17(AU133), or agIs26 (AU185) (see (1) Shivers, et al., PLoS. Genet. 2010, 6: e1000892, (2) Bolz et al., J. Biol. Chem. 2010, 285:10832-40, (3) Estes et al., Proc. Natl. Acad. Sci., 2010, 107:2153-8, and (4) Irazoqui et al., Proc. Natl. Acad. Sci., 2008, 105:17469-74) were used to assay the immunomodulatory activity of candidate compounds. For qRT-PCR experiments, RNA was extracted from synchronized young adult nematodes exposed to a candidate compound or DMSO (as a control) using TRI Reagent and reverse transcribed using the Retroscript kit (Ambion). This cDNA was then subjected to qRT-PCR analysis using SYBR green detection on a CFX1000 machine (Bio-Rad, http://www.bio-rad.com). Primers for qRT-PCR were obtained from published sequences (see Irazoqui et al., Proc. Natl. Acad. Sci., 2008, 105:17469-74 and Troemel et al., PLoS Genet. 2006, 2:e183). […] Fold change was calculated using the Pfaffl method (see Pfaffl et al., Nucleic Acids Res., 2001, 29:e45).
By using the assay described above, the inventors identified five compounds (i.e., Compounds 11, 18, 20, 25, and 26) that robustly and reproducibly activated the immune GFP reporters (see FIG. 5 and Table 3) or activated selected immune response genes as determined by quantitative RT-PCR analysis (see Table 4). For the latter experiments, RNA was isolated from wild-type C. elegans N2 or pmk-1 mutant animals exposed to the candidate immunomodulatory compounds at 20 μg/mL and from animals exposed to DMSO. The inventors tested several immune response genes in compound-exposed animals that are known to be regulated by PMK-1, the p38 Mitogen Acitvated Protein kinase homolog, an evolutionary-conserved, central regulator of nematode immunity. The inventors also used qRT-PCR to measure the activation of several immune response genes that are known to be activated independently of PMK-1. […]

T24B8.5::GFP = assay: Immune GFP reporter induction, transgene acIs219; type: in vivo, Caenorhabditis elegans; details: compound-exposed versus DMSO-exposed animals, visual
Source text: as §1
Without wishing to be bound by theory, it was hypothesized that a subset of these compounds cured nematode infection by directly activating the innate immune response of the animal. To test this hypothesis, a multi-faceted approach was used. First, the inventors studied four C. elegans strains in which the promoter of the nematode immune response genes T24B8.5, F35E12.5, irg-1 and clec-60 were individually fused to GFP, generating transgenes acIs219 (AU78), acIs101(AY101), agIs17(AU133), or agIs26 (AU185), respectively, thereby allowing a visual readout of gene activity in each strain. Using these reporter strains, the ability of 33 compounds previously shown to have anti-Enterococcal killing activity in the C. elegans infection assay (24 of which have been described above) were tested for their ability to modulate the nematode immune response.

T24B8.5 = assay: qRT-PCR of immune response gene expression; type: in vivo, Caenorhabditis elegans; details: 20 μg/mL versus DMSO
Source text: as §1
(§2) By using the assay described above, the inventors identified five compounds (i.e., Compounds 11, 18, 20, 25, and 26) that robustly and reproducibly activated the immune GFP reporters (see FIG. 5 and Table 3) or activated selected immune response genes as determined by quantitative RT-PCR analysis (see Table 4). For the latter experiments, RNA was isolated from wild-type C. elegans N2 or pmk-1 mutant animals exposed to the candidate immunomodulatory compounds at 20 μg/mL and from animals exposed to DMSO. The inventors tested several immune response genes in compound-exposed animals that are known to be regulated by PMK-1, the p38 Mitogen Acitvated Protein kinase homolog, an evolutionary-conserved, central regulator of nematode immunity. The inventors also used qRT-PCR to measure the activation of several immune response genes that are known to be activated independently of PMK-1. […] Thus, without wishing to be bound by theory, it is believed that a subset of the compounds identified in the screen for novel anti-infective compounds directly stimulate the immune response of the nematode and that these compounds act both by directly stimulating the PMK-1 pathway and by unidentified parallel immune response pathways.

C49G7.5 = assay: qRT-PCR of immune response gene expression; type: in vivo, Caenorhabditis elegans; details: 20 μg/mL versus DMSO
Source text: as §1, §2

irg-1 = assay: qRT-PCR of immune response gene expression; type: in vivo, Caenorhabditis elegans; details: 20 μg/mL versus DMSO
Source text: as §1, §2

C17H12.8 = assay: qRT-PCR of immune response gene expression; type: in vivo, Caenorhabditis elegans; details: 20 μg/mL versus DMSO
Source text: as §1, §2

F35E12.5 = assay: qRT-PCR of immune response gene expression; type: in vivo, Caenorhabditis elegans; details: 20 μg/mL versus DMSO
Source text: as §1, §2

F53E10.4 = assay: qRT-PCR of immune response gene expression; type: in vivo, Caenorhabditis elegans; details: 20 μg/mL versus DMSO
Source text: as §1, §2

F56D6.2 = assay: qRT-PCR of immune response gene expression; type: in vivo, Caenorhabditis elegans; details: 20 μg/mL versus DMSO
Source text: as §1, §2

O=C(O)C1CC(=O)N(CCC23CC4CC(CC(C4)C2)C3)/C(=N\c2ccc(Cl)cc2)S1 (stereo not shown) [Compound 6]
minimal effective concentration [1]: 0.39 µg/mL | killing of a Staphylococcus aureus strain [2]: killed | bactericidal activity (FIGS. 7A and 7B) [3]: rapid killing of bacteria | biofilm maintenance (OD595, FIG. 3B) (E. faecalis strain V583 [4]): disrupted biofilm once it was formed | killing of a different Enterococcus faecalis strain [5]: killed | biofilm formation (OD595, FIG. 3A) (E. faecalis strain V583 [6]): prevented E. faecalis biofilm formation | MIC (E. faecalis MMH594): 6.25 mg/L (≈ 14 µM) | bactericidal activity in Drosophila infection-survival bioassay (Drosophila infection): showed bactericidal activity

O=C(O)CSCC(=O)N1CCn2c3c(c4cc(C5CCCCC5)ccc42)CCCC31 (stereo not shown) [Compound 15]
killing of a Staphylococcus aureus strain [2]: killed | bactericidal activity (FIGS. 7A and 7B) [3]: rapid killing of bacteria | killing of a different Enterococcus faecalis strain [5]: killed | bactericidal activity in Drosophila infection-survival bioassay (Drosophila infection): showed bactericidal activity

CC(C)(c1ccc(NS(=O)(=O)C(F)(F)F)cc1)c1ccc(C(C)(C)c2cccc(NS(=O)(=O)C(F)(F)F)c2)cc1 [Compound 18]
PMK-1 dependence of immune response gene activation (immune response genes): activated at least one immune response gene in the nematode in a manner independent of PMK-1 | immune reporter induction T24B8.5::GFP (T24B8.5::GFP): + | T24B8.5 expression, average fold-change (T24B8.5; genotype N2): 2.6 fold-change | T24B8.5 expression, average fold-change (T24B8.5; genotype pmk-1(km25)): 0.3 fold-change | C49G7.5 expression, average fold-change (C49G7.5; genotype N2): 11.1 fold-change | C49G7.5 expression, average fold-change (C49G7.5; genotype pmk-1(km25)): 57.4 fold-change | irg-1 expression, average fold-change (irg-1; genotype N2): 1.5 fold-change | irg-1 expression, average fold-change (irg-1; genotype pmk-1(km25)): 4.4 fold-change | C17H12.8 expression, average fold-change (C17H12.8; genotype N2): 10.2 fold-change | C17H12.8 expression, average fold-change (C17H12.8; genotype pmk-1(km25)): 0.3 fold-change | F35E12.5 expression, average fold-change (F35E12.5; genotype N2): 10.6 fold-change | F35E12.5 expression, average fold-change (F35E12.5; genotype pmk-1(km25)): 0.4 fold-change | F53E10.4 expression, average fold-change (F53E10.4; genotype N2): 0.2 fold-change | F53E10.4 expression, average fold-change (F53E10.4; genotype pmk-1(km25)): 0.3 fold-change | F56D6.2 expression, average fold-change (F56D6.2; genotype N2): 2.2 fold-change | F56D6.2 expression, average fold-change (F56D6.2; genotype pmk-1(km25)): 1.0 fold-change
